Results: patent publication US6849649B2, “N-phenpropylcyclopentyl-substituted glutaramide derivatives as inhibitors of neutral endopeptidase” (Pfizer Inc., priority 2001, dated 2005)
pIC50: −log10 of the molar value. Where a name gives a salt, the structure may show the parent alone. Read-outs that look alike come from different tables or passages of the source.

Experiments:
[1] = molecular target: T1, NEP from canine kidney (Canis lupus familiaris, UniProt A0A8I3PBM8); test: IC50 against NEP (canine kidney); format: biochemical
T1 construct: determined using NEP from canine kidney; from tissue; host or cells: canine kidney
T1 sequence (A0A8I3PBM8 1-749): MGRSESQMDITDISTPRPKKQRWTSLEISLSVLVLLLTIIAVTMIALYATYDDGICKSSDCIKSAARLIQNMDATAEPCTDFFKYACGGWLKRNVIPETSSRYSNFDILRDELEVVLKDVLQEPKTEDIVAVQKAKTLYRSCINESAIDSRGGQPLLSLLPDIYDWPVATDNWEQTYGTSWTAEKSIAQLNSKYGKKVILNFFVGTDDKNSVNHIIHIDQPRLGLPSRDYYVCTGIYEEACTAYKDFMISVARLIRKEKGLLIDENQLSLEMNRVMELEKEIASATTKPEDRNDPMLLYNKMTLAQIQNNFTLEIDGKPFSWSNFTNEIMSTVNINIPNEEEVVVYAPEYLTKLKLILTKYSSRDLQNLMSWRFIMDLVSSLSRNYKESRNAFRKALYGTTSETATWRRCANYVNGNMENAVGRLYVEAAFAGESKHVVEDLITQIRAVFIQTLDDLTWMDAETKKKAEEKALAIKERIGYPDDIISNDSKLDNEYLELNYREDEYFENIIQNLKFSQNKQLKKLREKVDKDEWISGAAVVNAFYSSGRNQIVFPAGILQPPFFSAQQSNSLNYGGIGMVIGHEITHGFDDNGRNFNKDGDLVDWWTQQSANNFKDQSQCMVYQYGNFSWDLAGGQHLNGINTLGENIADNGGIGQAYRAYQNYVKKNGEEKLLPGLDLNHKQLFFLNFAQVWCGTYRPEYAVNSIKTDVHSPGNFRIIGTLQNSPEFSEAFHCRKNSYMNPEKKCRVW
Procedure: The IC50 values presented below were determined using NEP from canine kidney.

[2] = NEP from canine kidney, read-out: IC50 against NEP

melting point | pIC50 [1, 2] | pIC50 [1] | Compound
214 to 216 °C | – | – | COCCC(CC1(C(=O)NCCCc2ccc(OC)cc2)CCCC1)C(=O)O (centres unmarked) (as salt: sodium) [Example 1, 4-Methoxy-2-{[1-({[3-(4-methoxyphenyl)propyl]amino}carbonyl)cyclopentyl]-methyl}butanoic acid]
– | 7.66 | – | COCCC(CC1(C(=O)NC(C)COc2ccccc2Cl)CCCC1)C(=O)O (centres unmarked) [Example 3]
– | – | 8.40 | COCCC(CC1(C(=O)NCCCc2ccc(F)cc2)CCCC1)C(=O)O (centres unmarked) [Example 4, 2-{[1-({[3-(4-fluorophenyl)propyl]amino}carbonyl)cyclopentyl]methyl}-4-methoxybutanoic acid]
94.5 to 97 °C | 8.52 | – | O=C(O)CCC1(C(=O)NCCCc2ccc3c(c2)CCO3)CCCC1 [Example 21]
– | 7.33 | – | O=C(O)CCC1(C(=O)NCCCc2cccc3ccccc23)CCCC1 [Example 33]
– | 7.54 | – | COCC[C@H](CC1(C(=O)NCCCc2ccc3c(c2)OCCO3)CCCC1)C(=O)O [Example 43]
– | 8.05 | – | CC(CCNC(=O)C1(CCC(=O)O)CCCC1)c1ccc2c(c1)CCO2 (centres unmarked) [Example 51]
